Patent EP4610269A1, “UROKINASE PLASMINOGEN ACTIVATOR SURFACE RECEPTOR (UPAR) LIGANDS FOR DIAGNOSTIC OR THERAPEUTIC USE” (3B Pharmaceuticals GmbH, priority 2024, dated 2025)
Read-outs that look alike come from different tables or passages of the source. Where a SMILES comes first, the peptide text is derived from it. Bridges are numbered along the chain shown (N, C = ends). [ ]: non-standard residue; d: D form. The star is where a group is joined. DOTA = O=C(O)CN1CCN(CC(=O)O)CCN(CC(=O)*)CCN(CC(=O)O)CC1; Hyp = O=C(O)[C@@H]1C[C@@H](O)CN1; tBuAla = CC(C)(C)C[C@H](N)C(=O)O; Pentanoyl(4-Me) = CC(C)CCC(=O)*; Cit = NC(=O)NCCC[C@H](N)C(=O)O; Chg = N[C@H](C(=O)O)C1CCCCC1; Nle = CCCC[C@H](N)C(=O)O; Nva = CCC[C@H](N)C(=O)O; Bz = O=C(c1ccccc1)*

Experiments:
human uPAR (uPAR-Fc) = target: T1, human uPAR (uPAR-Fc) (Homo sapiens, UniProt Q03405); test: Surface plasmon resonance (SPR) assay, single cycle kinetics; format: binding; settings: pKD category for uPAR SPR activity assay, uPAR-Fc on Protein A-Chip, 25°C; for Kd: read-out: pKD CAT (converted)
T1 construct: comprising amino acids Leu23-Arg303 according to UniProt entry Q03405.1; purchased R&D Systems 10378-UK-100
T1 sequence (Q03405 23-303): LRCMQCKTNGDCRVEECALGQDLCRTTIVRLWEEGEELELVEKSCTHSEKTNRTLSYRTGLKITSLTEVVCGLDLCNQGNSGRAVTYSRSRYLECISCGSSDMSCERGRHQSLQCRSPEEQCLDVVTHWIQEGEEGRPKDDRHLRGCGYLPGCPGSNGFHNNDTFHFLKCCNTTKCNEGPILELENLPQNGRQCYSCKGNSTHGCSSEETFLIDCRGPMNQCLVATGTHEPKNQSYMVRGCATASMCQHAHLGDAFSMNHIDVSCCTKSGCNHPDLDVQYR
Procedure, shortened: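 uPAR-Fc (Leu23-Arg303 extracellular domains, human IgG1 Fc) captured on Protein A chip to ~2000 RU; single-cycle kinetics at 25°C in HEPES running buffer pH 7.4 with 0.1% DMSO. KD from double-referenced sensorgrams fitted to 1:1 Langmuir model, reported as pKD.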

[1] = target: T2, uPAR-expressing HEC-265 human endometrial adenocarcinoma cells (Homo sapiens, UniProt Q03405); test: Competitive FACS binding assay; settings: pIC50 category of FACS binding
T2 construct: Cell surface uPAR-expressing HEC-265 human endometrial adenocarcinoma cells; host or cells: HEC-265
T2 sequence (Q03405 23-335): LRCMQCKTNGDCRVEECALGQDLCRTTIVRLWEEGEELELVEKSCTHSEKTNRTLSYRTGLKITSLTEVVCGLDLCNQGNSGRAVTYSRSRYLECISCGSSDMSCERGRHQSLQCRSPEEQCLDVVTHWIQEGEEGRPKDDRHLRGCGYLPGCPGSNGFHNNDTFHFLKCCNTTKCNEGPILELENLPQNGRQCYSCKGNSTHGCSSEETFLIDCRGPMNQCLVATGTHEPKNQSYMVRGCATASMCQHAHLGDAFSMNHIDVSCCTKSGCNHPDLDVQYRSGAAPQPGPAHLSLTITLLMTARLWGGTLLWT
Procedure, shortened: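 Competitive displacement of a 10 nM biotinylated peptide from HEC-265 cells (1 h, 4 °C, PBS/1% BSA), detected via APC-streptavidin by flow cytometry. pIC50 from four-parameter logistic fit of median fluorescence versus concentration.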

Row | Molecule | Kd (human uPAR (uPAR-Fc)) | IC50 [1] | Kd (human uPAR (uPAR-Fc); single cycle kinetics) | pKD CAT (human uPAR (uPAR-Fc); single cycle kinetics) | pIC50 CAT [1]
1 | CCCC[C@@H]1NC(=O)[C@H](CCCNC(=N)N)NC(=O)[C@@H](NC(=O)[C@@H](CC(C)C)NC(=O)[C@H](CC(=O)O)NC(C)=O)CSSC[C@@H](C(N)=O)NC(=O)[C@H](CC(C)C)NC(=O)[C@H]([C@@H](C)CC)NC(=O)[C@H](C)NC(=O)[C@@H]2CCCN2C(=O)[C@H](Cc2ccccc2)NC(=O)[C@H](Cc2ccc(O)cc2)NC1=O [UPAR-244, Ac-Asp-leu-[Cys-Arg-Nle-Tyr-Phe-Pro-Ala-Ile-Leu-Cys]-NH2] (Ac-D[dL]CR[Nle]YFPAILC-NH2; disulfide 3-12) | < 1.58 nM | ≤ 10 nM |  |  | 
2 | CCC[C@@H]1NC(=O)[C@H]([C@@H](C)CC)NC(=O)[C@@H]2C[C@@H](O)CN2C(=O)[C@@H]2CCCN2C(=O)[C@H](Cc2ccccc2)NC(=O)[C@H](Cc2ccc(O)cc2)NC(=O)[C@H](CCC(N)=O)NC(=O)[C@H](CCCNC(=N)N)NC(=O)[C@@H](NC(=O)c2ccccc2)CSSC[C@@H](C(N)=O)NC1=O [UPAR-356, Bz-[Cys-Arg-Gln-Tyr-Phe-Pro-Hyp-Ile-Nva-Cys]-NH2] (Bz-CRQYFP[Hyp]I[Nva]C-NH2; disulfide 1-10) |  | ≤ 10 nM | < 1.58 nM |  | 
3 | CC[C@H](C)[C@@H]1NC(=O)[C@@H](C)NC(=O)[C@@H]2CCCN2C(=O)[C@H](Cc2ccccc2)NC(=O)[C@H](Cc2ccc(O)cc2)NC(=O)[C@H](CCCCNC(=O)CN2CCN(CC(=O)O)CCN(CC(=O)O)CCN(CC(=O)O)CC2)NC(=O)[C@H](CCCNC(N)=O)NC(=O)[C@@H](NC(=O)CCC(C)C)CSSC[C@@H](C(N)=O)NC(=O)[C@H](CC(C)C)NC1=O [UPAR-256, iHex-[Cys-Cit-Lys(DOTA)-Tyr-Phe-Pro-ala-Ile-Leu-Cys]-NH2] ({Pentanoyl(4-Me)}-C[Cit]K(DOTA)YFP[dA]ILC-NH2; disulfide 1-10) | < 1.58 nM | ≤ 10 nM |  |  | 
4 | CCCCC(=O)N[C@H]1CSSC[C@@H](C(N)=O)NC(=O)[C@H](CCC)NC(=O)[C@H]([C@@H](C)CC)NC(=O)[C@@H]2C[C@@H](O)CN2C(=O)[C@@H]2CCCN2C(=O)[C@H](Cc2ccccc2)NC(=O)[C@H](Cc2ccc(O)cc2)NC(=O)[C@H](CCCCNC(=O)CN2CCN(CC(=O)O)CCN(CC(=O)O)CCN(CC(=O)O)CC2)NC(=O)[C@H](CCCNC(=O)CCCC(=O)NCCOCCOCCOCCOCCC(=O)NC(COCCC(=O)NCCOCCOCCOCCOCCOCCOCCOCCOCCOCCOCCOCCOC)(COCCC(=O)NCCOCCOCCOCCOCCOCCOCCOCCOCCOCCOCCOCCOC)COCCC(=O)NCCOCCOCCOCCOCCOCCOCCOCCOCCOCCOCCOCCOC)NC1=O [UPAR-247, Pent-[Cys-Orn(TrisPEG)-Lys(DOTA)-Tyr-Phe-Pro-Hyp-Ile-Nva-Cys]-NH2] | 10 to 100 nM | 12.6 to 31.6 nM |  |  | 
5 | Succinyl-Nva-[Cys-Cit-Lys(GdDOTA)-Tyr-Phe-Pro-Hyp-Ile-Nva-Cys]-NH2 [UPAR-460] |  |  |  | A (pKD values ≥ 8.8) | A (pIC50 values ≥8.0)
6 | CC[C@H](C)[C@@H]1NC(=O)[C@@H](C)NC(=O)[C@@H]2CCCN2C(=O)[C@H](Cc2ccccc2)NC(=O)[C@H](Cc2ccc(O)cc2)NC(=O)[C@H](CCC(N)=O)NC(=O)[C@@H](CCCNC(=N)N)NC(=O)[C@@H](NC(=O)CCC(C)C)CSSC[C@@H](C(N)=O)NC(=O)[C@H](CC(C)C)NC1=O [UPAR-467, iHex-[Cys-arg-Gln-Tyr-Phe-Pro-ala-Ile-Leu-Cys]-NH2] ({Pentanoyl(4-Me)}-C[dR]QYFP[dA]ILC-NH2; disulfide 1-10) |  | ≥ 126 nM | 10 to 100 nM |  | 
7 | CC(C)CCC(=O)N[C@H]1CSSC[C@@H](C(N)=O)NC(=O)[C@H](CC(C)C)NC(=O)[C@H](C2CCCCC2)NC(=O)[C@@H](C)NC(=O)[C@@H]2CCCN2C(=O)[C@H](Cc2ccccc2)NC(=O)[C@H](Cc2ccc(O)cc2)NC(=O)[C@H](CCC(N)=O)NC(=O)[C@H](CCCNC(N)=O)NC1=O [UPAR-225, iHex-[Cys-Cit-Gln-Tyr-Phe-Pro-ala-Chg-Leu-Cys]-NH2] ({Pentanoyl(4-Me)}-C[Cit]QYFP[dA][Chg]LC-NH2; disulfide 1-10) | < 1.58 nM | ≤ 10 nM |  |  | 
8 | CC[C@H](C)[C@@H]1NC(=O)[C@@H](C)NC(=O)[C@@H]2CCCN2C(=O)[C@H](Cc2ccccc2)NC(=O)[C@H](Cc2ccc(O)cc2)NC(=O)[C@H](CCC(N)=O)NC(=O)[C@H](CCCNC(N)=O)NC(=O)[C@@H](NC(=O)CCC(C)C)CSSC[C@@H](C(N)=O)NC(=O)[C@H](CC(C)(C)C)NC1=O [UPAR-477, iHex-[Cys-Cit-Gln-Tyr-Phe-Pro-ala-Ile-Npg-Cys]-NH2] ({Pentanoyl(4-Me)}-C[Cit]QYFP[dA]I[tBuAla]C-NH2; disulfide 1-10) |  | 39.8 to 100 nM | 10 to 100 nM |  | 
